# Where two headings read alike, the source gives them in different places.
# Legend:
# [1] = Stability experiment: crystal form by XRD; type: physicochemical
# Description: (§1) 1. Stability experiment of crystal form A and crystal form B-1 • (A) An appropriate amount of samples were weighed respectively and placed open at room temperature and under accelerated conditions (40° C./75% RH), on day 0, 7, 14, and 28 • (B) Crystal form A was placed in an oven at 60° C., on day 14, 32.
# (§2) The content and related substance changes were detected by HPLC, and XRD was measured at the same time to investigate stability of the crystal forms.
# [2] = Stability experiment: content and related substance by HPLC; type: physicochemical
# Description: as §1, §2
# [3] = Thermogravimetric analysis; type: physicochemical; details: under 50° C.-90° C.
# Description: TGA and DSC pattern: TGA and DSC pattern were collected on TA Q500/5000 thermogravimetric analyzer and TA Q200/2000 differential scanning calorimeter respectively.
# [4] = Hygroscopicity test (DVS); type: physicochemical; details: for hygroscopicity (in words): 80% RH at 25° C.; for hygroscopic weight gain: humidity increases to 80% RH at 25° C.
# Description: The Dynamic Vapor Sorption (DVS) curve: acquired on the DVS Intrinsic of Surface Measurement Systems. The relative humidity at […] is corrected with the deliquescence points of LiCl, Mg (NO3)2 and KCl.
# Solubility experiment = type: physicochemical; details: for solubility in aqueous medium (summary): aqueous media of Table 6
# CDK2 = biological target: T1, CDK2 (Homo sapiens, UniProt P24941); assay: Kinase test in vitro (LANCE Ultra, Ulight-4EBP1); type: biochemical
# T1 construct: purchased Invitrogen
# Description: (§3) Recombinant CDK1, CCNB1 and CDK9, and CCNT were purchased from BPS; CDK2, CCNA1, CDK4, CCND1 and CDK6, and CCND1 were purchased from Invitrogen; CDK4, CycD3 and CDK6, and CycD3 were purchased from Carna. Adenosine triphosphate (ATP) was purchased from Life tech. Substrate Ulight-4EBP1 and the corresponding detection antibody were purchased from Perkinelmer. LANCE Ultra system from Perkinelmer is used as the detection system.
# (§4) In the kinase test, a compound to be tested was 1:3 diluted for 8 gradient points and added into a reaction plate, and then an appropriate amount of recombinase was added. A buffer [50 mM HEPES pH7.5, 10 mM MgCl2, 3 mM MnCl2, 1 mM EGTA, 0.01% Tween-20, 1 mM TCEP] containing ATP, Ulight-4EBP1 premix at a predetermined concentration was subsequently added, and the kinase reaction began at room temperature. A test solution pre-mixed with 10 mM EDTA and detection antibody was added after a suitable reaction time, and then the fluorescence value was read on Tecan infinite pro after reacting for 1 hour at room temperature. The IC50 was calculated using a four-factor model fitting in a XLfit software.
# CDK4 = biological target: T2, CDK4 (Homo sapiens, UniProt P11802); assay: Kinase test in vitro (LANCE Ultra, Ulight-4EBP1); type: biochemical
# T2 construct: purchased Invitrogen or Carna
# T2 sequence (P11802 whole entry): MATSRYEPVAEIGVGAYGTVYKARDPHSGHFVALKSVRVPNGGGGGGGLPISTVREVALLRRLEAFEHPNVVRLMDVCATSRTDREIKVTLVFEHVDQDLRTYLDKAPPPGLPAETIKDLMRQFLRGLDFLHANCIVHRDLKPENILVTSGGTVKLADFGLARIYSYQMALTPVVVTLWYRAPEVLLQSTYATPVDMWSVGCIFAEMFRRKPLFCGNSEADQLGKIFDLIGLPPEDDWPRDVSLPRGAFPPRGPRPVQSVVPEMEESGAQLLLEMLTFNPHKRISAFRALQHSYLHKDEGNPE
# T2 sequence (P24385 whole entry partner): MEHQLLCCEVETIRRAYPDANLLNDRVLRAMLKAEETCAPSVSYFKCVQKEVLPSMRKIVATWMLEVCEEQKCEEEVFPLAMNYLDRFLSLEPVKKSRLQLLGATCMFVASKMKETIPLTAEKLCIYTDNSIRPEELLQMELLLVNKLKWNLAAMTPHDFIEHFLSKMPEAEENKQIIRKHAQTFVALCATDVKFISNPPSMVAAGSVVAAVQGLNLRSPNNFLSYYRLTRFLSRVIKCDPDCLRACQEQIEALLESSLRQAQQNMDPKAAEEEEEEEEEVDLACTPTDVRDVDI
# Description: as §3, §4
# CDK6 = biological target: T3, CDK6 (Homo sapiens, UniProt Q00534); assay: Kinase test in vitro (LANCE Ultra, Ulight-4EBP1); type: biochemical
# T3 construct: purchased Invitrogen or Carna
# T3 sequence (Q00534 whole entry): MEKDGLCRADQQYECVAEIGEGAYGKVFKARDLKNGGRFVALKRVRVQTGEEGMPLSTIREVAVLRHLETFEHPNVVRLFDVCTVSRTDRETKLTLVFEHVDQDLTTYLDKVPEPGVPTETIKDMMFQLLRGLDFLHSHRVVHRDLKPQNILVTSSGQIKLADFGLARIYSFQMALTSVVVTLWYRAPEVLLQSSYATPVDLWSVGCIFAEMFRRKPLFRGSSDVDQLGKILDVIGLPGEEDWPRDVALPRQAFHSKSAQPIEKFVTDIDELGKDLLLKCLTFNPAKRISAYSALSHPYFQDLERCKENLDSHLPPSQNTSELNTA
# T3 sequence (P24385 whole entry partner): as the sequence (P24385 whole entry partner) above
# Description: as §3, §4
# CDK1 = biological target: T4, CDK1 (Homo sapiens, UniProt P06493); assay: Kinase test in vitro (LANCE Ultra, Ulight-4EBP1); type: biochemical
# T4 construct: purchased BPS
# T4 sequence (P06493 whole entry): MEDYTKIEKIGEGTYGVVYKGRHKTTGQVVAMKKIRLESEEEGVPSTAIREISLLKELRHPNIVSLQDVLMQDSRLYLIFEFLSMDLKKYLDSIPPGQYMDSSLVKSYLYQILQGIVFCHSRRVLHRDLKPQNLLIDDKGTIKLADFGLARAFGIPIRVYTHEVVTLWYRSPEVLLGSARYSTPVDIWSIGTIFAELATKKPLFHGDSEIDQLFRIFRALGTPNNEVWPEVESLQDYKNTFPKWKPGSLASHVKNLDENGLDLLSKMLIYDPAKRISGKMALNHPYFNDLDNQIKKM
# T4 sequence (P14635 whole entry partner): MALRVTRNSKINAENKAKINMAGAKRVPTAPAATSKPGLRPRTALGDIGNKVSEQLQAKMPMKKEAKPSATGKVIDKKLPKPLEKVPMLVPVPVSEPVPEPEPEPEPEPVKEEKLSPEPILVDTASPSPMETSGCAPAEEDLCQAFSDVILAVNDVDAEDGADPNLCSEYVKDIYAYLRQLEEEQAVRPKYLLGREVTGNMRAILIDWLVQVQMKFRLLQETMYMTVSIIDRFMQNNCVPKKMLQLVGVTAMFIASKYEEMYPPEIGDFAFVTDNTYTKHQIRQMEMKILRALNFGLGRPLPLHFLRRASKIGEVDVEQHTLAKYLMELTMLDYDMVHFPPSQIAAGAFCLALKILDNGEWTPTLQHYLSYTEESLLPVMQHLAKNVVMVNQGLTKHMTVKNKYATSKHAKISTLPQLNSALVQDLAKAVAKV
# Description: as §3, §4
# [5] = accelerated conditions for 28 days
# [6] = accelerated conditions 40° C./75% RH, open, on day 7
# [7] = accelerated conditions 40° C./75% RH, open, on day 14
# [8] = accelerated conditions 40° C./75% RH, open, on day 28
# [9] = accelerated conditions 40° C./75% RH, open, on day 28, footnote: content obviously higher, measurement has errors
# [10] = room temperature and accelerated conditions (40° C./75% RH), up to 28 days
# [11] = room temperature, open, on day 7
# [12] = room temperature, open, on day 14
# [13] = room temperature, open, on day 28
# [14] = room temperature, open, on day 28, footnote: content obviously higher, measurement has errors
# [15] = 0.1 M HCl, calculated for crystal form I
# [16] = Acetone, calculated for crystal form I
# [17] = Acetonitrile, calculated for crystal form I
# [18] = Ethanol, calculated for crystal form I
# [19] = Ethyl acetate, calculated for crystal form I
# [20] = H2O, calculated for crystal form I
# [21] = Isopropanol, calculated for crystal form I
# [22] = Methanol, calculated for crystal form I
# [23] = Tetrahydrofuran, calculated for crystal form I
# [24] = medium pH4.5, calculated for crystal form I
# [25] = medium pH6.8, calculated for crystal form I
# [26] = medium pH7.4, calculated for crystal form I
Structure (SMILES),"crystal form stability by XRD (in words) [1, 5]","Content [2, 6] [%]","Impurity peak [2, 6]","Content [2, 7] [%]","Impurity peak [2, 7]","Impurity peak [2, 8]",hygroscopicity (in words) [4],hygroscopic weight gain [4] [%],Solubility (Solubility experiment; [15]) [mg/mL],Solubility (Solubility experiment; [16]) [mg/mL],Solubility (Solubility experiment; [17]) [mg/mL],Solubility (Solubility experiment; [18]) [mg/mL],Solubility (Solubility experiment; [19]) [mg/mL],Solubility (Solubility experiment; [20]) [mg/mL],Solubility (Solubility experiment; [21]) [mg/mL],Solubility (Solubility experiment; [22]) [mg/mL],Solubility (Solubility experiment; [23]) [mg/mL],Solubility (Solubility experiment; [24]) [mg/mL],Solubility (Solubility experiment; [25]) [mg/mL],Solubility (Solubility experiment; [26]) [mg/mL],further results
CCN1CCN(Cc2ccc(Nc3ncc4c(n3)-c3c(nc(C5CC5)n3C(C)C)C4)nc2)CC1 [Crystal form B-1],crystal form is stable,94.36,none,95.19,none,none,has hygroscopicity,6.88,>40.10,>41.11,0.28,19.59,0.02,>40.85,0.58,>45.19,0.39,>29.40,>27.40,>25.65,"Content [2, 9]: 110.05%; Content ([2]; on day 0): 94.43%; Impurity peak ([2]; on day 0): none; chemical stability (in words) [2, 10]: chemical properties are stable; Content [2, 11]: 96.50%; Impurity peak [2, 11]: none; Content [2, 12]: 96.45%; Impurity peak [2, 12]: none; Impurity peak [2, 13]: none; Content [2, 14]: 107.12%; weight loss (TGA) [3]: about 7.4%; solubility in aqueous medium (summary) (Solubility experiment): more than 25 mg/ml"
CCN1CCN(Cc2ccc(Nc3ncc4c(n3)-c3c(nc(C5CC5)n3C(C)C)C4)nc2)CC1 [Crystal form K-1],–,–,–,–,–,–,very hygroscopic,30.74,>44.74,11.47,>16.64,>41.86,11.48,>38.91,>42.89,>30.41,39.09,>35.09,>33.57,>38.78,"solubility ranking of the crystal forms (in words) (Solubility experiment): the best solubility; Solubility (Solubility experiment; thermodynamic from solid, all solvents and media of Table 6, read-out: solubility in organic solvents and aqueous medium (summary)): 11 to 45 mg/mL"
"Cc1c2c(nn1C)CCc1cnc(Nc3ccc(N4CCN(C)CC4)cc3)nc1-2 [compound 1, reference compound]",–,–,–,–,–,–,–,–,–,–,–,–,–,–,–,–,–,–,–,–,IC50 (CDK2): 0.023 µM; inhibitory activity against CDK2 (in words) (CDK2): strong inhibitory activity; IC50 (CDK4): 0.008 µM; inhibitory activity against CDK4 (in words) (CDK4): strong inhibitory activity; IC50 (CDK6): 0.053 µM; inhibitory activity against CDK6 (in words) (CDK6): strong inhibitory activity; IC50 (CDK1): 0.093 µM; inhibitory activity against CDK1 (in words) (CDK1): strong inhibitory activity
CCN1CCN(Cc2ccc(Nc3ncc4c(n3)-c3c(nc(C5CC5)n3C(C)C)C4)nc2)CC1 [Crystal form A],crystal form is stable,100.97,none,104.46,none,none,slightly hygroscopic,0.613,>58.10,0.23,0.22,6.97,0.03,11.59,0.26,41.04,0.15,14.30,19.66,17.86,"crystal form stability by XRD (in words) ([1]; high temperature of 60° C. for 14 days and 32 days): not transformed; chemical stability (in words) ([2]; 60° C., 14 and 32 days): chemical properties are stable; Content [2, 9]: 113.75%; Content ([2]; on day 0): 103.14%; Impurity peak ([2]; on day 0): none; Content ([2]; oven at 60° C., on day 14): 106.2%; Impurity peak ([2]; oven at 60° C., on day 14): none; Content ([2]; oven at 60° C., on day 32): 104.5%; Impurity peak ([2]; oven at 60° C., on day 32): none; chemical stability (in words) [2, 10]: chemical properties are stable; Content [2, 11]: 103.82%; Impurity peak [2, 11]: none; Content [2, 12]: 104.20%; Impurity peak [2, 12]: none; Impurity peak [2, 13]: none; Content [2, 14]: 116.27%; solubility in aqueous medium (summary) (Solubility experiment): more than 11 mg/ml"
CCN1CCN(Cc2ccc(Nc3ncc4c(n3)-c3c(nc(C5CC5)n3C(C)C)C4)nc2)CC1 [Crystal form I],–,–,–,–,–,–,has hygroscopicity,8.84,–,>5,>1,>50,>10,0.36,>20,>100,>100,9.66,2.85,1.08,"solubility ranking of the crystal forms (in words) (Solubility experiment): the lowest solubility; Solubility (Solubility experiment; 0.1 M HCl, simulated gastric fluid, thermodynamic from solid, 0.1 M HCl, calculated for crystal form I, read-out: Solubility): 34.7 mg/mL; Solubility (Solubility experiment; 50% acetonitrile, aqueous with cosolvent or surfactant or cyclodextrin, thermodynamic from solid, 50% Acetonitrile, calculated for crystal form I, read-out: Solubility): > 25 mg/mL; Solubility (Solubility experiment; dimethyl sulfoxide, organic solvent or mixture, thermodynamic from solid, Dimethyl sulfoxide, calculated for crystal form I, read-out: Solubility): > 6.6 mg/mL; Solubility (Solubility experiment; methyl tert-butyl ether, organic solvent or mixture, thermodynamic from solid, Methyl tert-butyl ether, calculated for crystal form I, read-out: Solubility): > 2 mg/mL; Solubility (Solubility experiment; n-heptane, organic solvent or mixture, thermodynamic from solid, N-heptane, calculated for crystal form I, read-out: Solubility): < 2 mg/mL"
